# From US5775329A, “Method and compounds for diagnosing coronary artery disease” (Gensia, Inc., priority 1995, dated 1998)
# Entries after “also recorded” stand apart in the source; their conditions may differ. Structures can show the parent of a compound that is named as a salt.
# How the values were obtained:
# β2-adrenoreceptor = molecular target: T1, β2-adrenoreceptor (Cavia porcellus, UniProt Q8K4Z4); test: In vitro bioassay for β2-adrenergic activity (relaxation of precontracted tracheal rings); type: biochemical; settings: guinea pig tracheal rings precontracted with carbachol, 37° C., pH=7.4, read-out: β2 (trachea)
# T1 construct: the trachea was gently excised and placed in ice-cold aerated Krebs Ringer solution; from tissue; host or cells: guinea pig tracheal rings
# T1 sequence (Q8K4Z4 whole entry): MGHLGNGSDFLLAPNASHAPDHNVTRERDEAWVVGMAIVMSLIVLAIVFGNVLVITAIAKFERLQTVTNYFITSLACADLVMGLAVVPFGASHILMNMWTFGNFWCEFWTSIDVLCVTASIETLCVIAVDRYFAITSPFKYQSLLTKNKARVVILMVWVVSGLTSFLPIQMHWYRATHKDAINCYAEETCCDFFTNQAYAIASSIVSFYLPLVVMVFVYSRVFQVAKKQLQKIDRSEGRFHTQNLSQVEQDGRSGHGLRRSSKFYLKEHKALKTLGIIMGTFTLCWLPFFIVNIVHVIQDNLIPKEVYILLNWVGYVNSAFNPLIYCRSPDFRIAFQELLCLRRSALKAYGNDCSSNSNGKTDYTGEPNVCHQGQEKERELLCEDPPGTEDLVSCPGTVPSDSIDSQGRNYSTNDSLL
# Description: (§1) In Vitro Bioassays for β1 -, β2 - and α-Adrenoreceptor Activity
# (§2) Functional evaluation of β1 -, β2 - and α-adrenoreceptor activity was performed using in vitro preparations of guinea pig atria, guinea pig trachea, and rabbit aorta, respectively (Young, et. al, Drug Dev. Res. 1994, 32, 19-28).
# For the tracheal assay of β2 -adrenergic activity, male Hartley guinea pigs (350-500 g) were sacrificed by carbon dioxide inhalation and the trachea was gently excised and placed in ice-cold aerated Krebs Ringer solution. β2 -adrenergic activity was assessed as the relaxation of rings following precontraction with carbachol. The trachea were cut into transverse rings containing two cartilage segments, and sutures were tied onto the cartilage on either side of the band of smooth muscle of each ring. The sutures were used to mount the individual rings in a 2.5-ml organ bath and to measure tension with an isometric force transducer. The water-jacketed organ baths maintained the preparation at 37° C. and were filled with Krebs Ringer solution aerated with 95% O2 and 5% CO2. The tracheal rings were equilibrated for 1 h following the application of 0.5 g resting tension. In some cases, equilibrated rings were then treated with the α2 -antagonist rauwolscine ([…]) and the β1 -antagonist atenolol ([…]) prior to precontraction with carbachol ([…]). Precontracted rings used as controls received treatments of saline only. Concentration-response curves were obtained by cumulative addition of drug to the organ bath, the concentration being increased only after the maximal relaxation to the preceding concentration was attained. After the final response was attained, isoproterenol ([…]) was added to assess maximal response for each preparation.
# (§3) In all experiments, tension was measured by isometric force transducers (52-9529, Harvard Apparatus, Natick, Mass.) coupled to an ink-writing recorder (Gould, Cleveland Ohio). The Krebs Ringer solution contained the following ingredients (mM): NaCl (118.1), NaHCO3 (25.0), D-glucose (11.1), KH2 PO4 (1.2), KCl (4.8), MgSO4 (1.2), CaCl2 (2.5), pH=7.4.
# heart rate = test: Pharmacodynamics in conscious dogs during transdermal iontophoretic administration; type: in vivo, dog; settings: 10 min
# Description: Pharmacodynamics in conscious dogs during transdermal iontophoretic administration
# Dogs were trained to lie quietly on a table. Heart rate was monitored by ECG limb leads. Novel catecholamines were administered from a gel-filled electrode placed on the surface of the skin. A second electrode was placed on the skin to complete the electrical circuit. All compounds were delivered using a current of 0.25 mA for a period of 10 minutes. Heart rate was monitored by the ECG, and the T50 of the compound was measured as the time after termination of current required for heart rate to return 50% toward baseline rate. A "delay" time was also measured as the time required for heart rate to begin to fall, following termination of current.
# [1] = system: heart rate (chronotropic response); test: Pharmacodynamics in conscious dogs during i.v. administration (chronotropic response and offset); type: in vivo, dog
# Description: […] The T50 s were measured from end of infusion.
# Pharmacodynamics in conscious dogs during i.v. administration
# Dogs were trained to lie quietly on a table. Novel catecholamine compounds were administered via a venous catheter acutely placed in a leg vein. […] Heart rate was recorded by computer from ECG limb leads at 5 second intervals throughout the experiment. […]
# β1-adrenoreceptor = molecular target: T2, β1-adrenoreceptor (Cavia porcellus, UniProt H0W3H1); test: In vitro bioassay for β1-adrenergic activity (atrial rate); type: biochemical; settings: guinea pig atria, 37° C., pH=7.4, approximately four atrial preparations per compound
# T2 construct: the hearts were excised and placed in ice-cold oxygenated Krebs Ringer buffer; tissue Charles River Laboratories (animals); host or cells: guinea pig atria (right and left, paired)
# T2 sequence (H0W3H1 1-470): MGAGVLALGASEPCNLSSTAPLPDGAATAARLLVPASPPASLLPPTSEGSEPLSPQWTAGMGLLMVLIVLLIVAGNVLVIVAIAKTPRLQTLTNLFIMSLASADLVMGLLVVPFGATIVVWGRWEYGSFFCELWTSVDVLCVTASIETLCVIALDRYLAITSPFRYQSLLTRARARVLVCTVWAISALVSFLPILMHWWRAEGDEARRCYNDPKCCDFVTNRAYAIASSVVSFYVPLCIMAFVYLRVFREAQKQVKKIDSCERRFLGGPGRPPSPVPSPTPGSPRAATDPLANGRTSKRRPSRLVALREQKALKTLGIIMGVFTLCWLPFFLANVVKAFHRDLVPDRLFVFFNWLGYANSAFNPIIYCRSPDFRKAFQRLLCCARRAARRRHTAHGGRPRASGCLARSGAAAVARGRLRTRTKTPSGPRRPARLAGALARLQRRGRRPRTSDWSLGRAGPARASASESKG
# Description: as §1, §2
# For the atrial assay of β1 -adrenergic activity, male Hartley guinea pigs (350-500 g; Charles River Laboratories, Wilmington, Mass.) were sacrificed by decapitation and the hearts were excised and placed in ice-cold oxygenated Krebs Ringer buffer. The atria were separated from the ventricles, leaving the right and left atria attached as a pair. A suture was placed at the apex of each atrial appendage for securing the tissue within the organ bath. The water-jacketed 25-ml organ baths were maintained at 37° C. and filled with Krebs Ringer solution aerated with 95% O2 and 5% CO2. The atrial pairs were equilibrated for at least 20 min after application of 1 g resting tension. β1 -adrenergic activity was assessed using atrial rate (beats per min) and amplitude of contraction (g tension) which were monitored at 1 and 5 min after dosing. Concentration-response curves (10^-11 -10^-4 M) were obtained by cumulative addition of drug to the bath. Following the completion of the dose response curves, isoproterenol was added to assess maximal response of each atrial preparation. EC50 values were calculated from the rate results of approximately four atrial preparations per compound.
# as §3
# α-adrenoreceptor = test: In vitro bioassay for α-adrenergic activity (contraction of aortic rings); type: biochemical; settings: rabbit aortic rings, propranolol pretreated, 37° C., pH=7.4, read-out: α (aorta)
# Description: as §1, §2
# For evaluation of α-adrenergic activity, male New Zealand white rabbits (2.5 kg) (Simunek Rabbitry, Vista, Calif.) were sacrificed by carbon dioxide inhalation and the thoracic aorta was quickly excised and placed in Krebs Ringer solution. The aorta was cut into 3-mm rings which were subsequently suspended on hooks in organ baths. The 2.5-ml water-jacketed baths were maintained at 37° C. and filled with Krebs Ringer solution aerated with 95% O2 and 5% CO2. The vascular rings were equilibrated for 1 h following the application of a resting tension of 4 g, during which time the buffer was changed at 15-min intervals. All rings were pretreated with propranolol ([…]) 10 min prior to addition of test compounds. Concentration-response curves were obtained by cumulative addition of compound to the organ bath, the concentration being increased only after maximal response to the preceding concentration was attained. After the final response was attained for each test drug, norepinephrine ([…]) was added to assess maximal contraction. Responses are expressed as a percent of the maximal contraction by norepinephrine.
# as §3
# [2] = iontophoresis 0.25 mA, concentration (mM): isoproterenol 2.5, arbutamine 20, Ex 4 2, Ex 1 3, Ex 11 12, Ex 9 8, Ex 6 8
# [3] = Example 13, i.v. stepwise ascending doses up to 100 ng/kg/min
# [4] = Example 13, i.v., from termination of infusion (100 ng/kg/min) to 50% fall in heart rate towards baseline
# [5] = Table I, i.v., measured from end of infusion at highest dose 100 ng/kg/min
# [6] = Table I, stable increase over baseline at highest dose (100 ng/kg/min i.v.), ascending doses
# [7] = Example 13, i.v., dose reached 300 ng/kg/min
EC50 (β2-adrenoreceptor) [nM],EC50 (β1-adrenoreceptor) [nM],EC50 (α-adrenoreceptor) [nM],SMILES,Delay (time required for heart rate to begin to fall following termination of current) (heart rate; [2]) [min],T50 (time after termination of current for heart rate to return 50% toward baseline) (heart rate; [2]) [min],Δ Heart Rate (heart rate; [2]) [beats/min],"Δ Heart Rate [1, 3]","T50 [1, 4] [min]","T50 [1, 5] [min]","Δ Heart Rate [1, 6] [beats/min]","offset time / T50 (in words) ([1]; i.v., compared with isoproterenol and arbutamine)","T50 (time required for the chronotropic response to decrease by 50%) ([1]; oxalate salt, dog studies) [min]","T50 [1, 7] [min]","Δ Heart Rate [1, 7]",Δ Heart Rate (heart rate) [beats/min]
16 ± 1.2,9.7 ± 2,88300 ± 5660,"CSCCCNC[C@H](O)c1ccc(O)c(O)c1 [Example 11, 1-(R)-(3,4-dihydroxyphenyl)-2-(3-methylthiopropylamino)ethanol]",0.8 ± 0.2,12.7 ± 3.6,89 ± 7,109 ± 4,3.6 ± 0.2,3.6 ± 0.3,109 ± 4,shorter than for both isoproterenol and arbutamine; also recorded: substantially shorter T50 than isoproterenol and arbutamine,3.6,,,
20 ± 3.4,2.9 ± 0.6,1400 ± 82,"CSCCCCNC[C@H](O)c1ccc(O)c(O)c1 [Example 9, 1-(R)-(3,4-dihydroxyphenyl)-2-(4-methylthiobutylamino)ethanol]",0.6 ± 0.6,9.3 ± 0.5,82 ± 9,,,,,,,3.6 ± 0.34,93 ± 6,
9.9 ± 1.3,1.1 ± 0.2,> 100000,"COCCC(C)NC[C@H](O)c1ccc(O)c(O)c1 (stereo partly drawn) [Example 4, 1-(R)-(3,4-dihydroxyphenyl)-2-(1-methyl-3-methoxypropylamino)ethanol]",0.3 ± 0.1,9.1 ± 0.8,79 ± 8,98 ± 8,5.0 ± 0.7,,,,,,,
124 ± 13.6,4.8 ± 0.7,> 10000,"CCSCCCNC[C@H](O)c1ccc(O)c(O)c1 [Example 10, 1-(R)-(3,4-dihydroxyphenyl)-2-(3-ethylthiopropylamino)ethanol]",,,,,,,,,,,,
2.7 ± 0.5,3.4 ± 0.4,15600 ± 8220,"CC(CCCC#N)NC[C@H](O)c1ccc(O)c(O)c1 (stereo partly drawn) [Example 2, 1-(R)-(3,4-dihydroxyphenyl)-2-(1-methyl-4-cyanobutylamino)ethanol]",,,,,,,,,,,,
,,,"Oc1ccc(CCCCNC[C@H](O)c2ccc(O)c(O)c2)cc1 [Arbutamine, reference compound]",2.3 ± 1.4,24.8 ± 2.7,84 ± 5,,,7.2 ± 1.1,84 ± 9,,,,,
8.2 ± 1.6,1.5 ± 0.4,51800 ± 19200,"COCCCC(C)NC[C@H](O)c1ccc(O)c(O)c1 (stereo partly drawn) [Example 5, 1-(R)-(3,4-dihydroxyphenyl)-2-(1-methyl-4-methoxybutylamino)ethanol]",,,,,,,,,,,,
,1.4 ± 0.3,7830 ± 239,"CC(CCC[S+](C)[O-])NC[C@H](O)c1ccc(O)c(O)c1 (stereo partly drawn) [*, 1 (R)(3,4-dihyroxyphenyl)-2-(1-methyl-4-methylsulfinylbutylamino) ethano oxalate salt]",,,,,,,,,,,,
4.7 ± 1.2,4.6 ± 0.7,7500 ± 2840,"N#CCCCNC[C@H](O)c1ccc(O)c(O)c1 [Example 1, 1-(R)-(3,4-dihydroxyphenyl)-2-(3-cyanopropylamino)ethanol]",1.9 ± 0.5,12.4 ± 1.3,,109 ± 5,6.9 ± 0.6,,,,,,,77 ± 1.3
21 ± 3,19 ± 5.4,61300 ± 3820,"COCCCNC[C@H](O)c1ccc(O)c(O)c1 [Example 3, 1-(R)-(3,4-dihydroxyphenyl)-2-(3-methoxy-propylamino)ethanol]",,,,,,,,,,,,
,,,"CC(C)NCC(O)c1ccc(O)c(O)c1 (centres unmarked) [Isoproterenol, reference compound]",1.2 ± 0.5,12.2 ± 1.9,80 ± 11,,,5.5 ± 1.0,103 ± 12,,,,,
140 ± 35.3,14.9 ± 3.6,> 10000,"C[S+]([O-])CCCNC[C@H](O)c1ccc(O)c(O)c1 (stereo partly drawn) [Example 6, 1-(R)-(3,4-dihydroxyphenyl)-2-(3-methylsulfinylpropylamino)ethanol]",0.9 ± 0.5,13.6 ± 2.3,93 ± 6,93 ± 3,5.4 ± 1.3,,,,,,,
245 ± 84.7,13.3 ± 1,5500 ± 456,"C[S+]([O-])CCCCNC[C@H](O)c1ccc(O)c(O)c1 (stereo partly drawn) [Example 7, 1-(R)-(3,4-dihydroxyphenyl)-2-(4-methylsulfinylbutylamino)ethanol]",,,,,,,,,,,,
4.6 ± 0.2,0.6 ± 0.3,20900 ± 9850,"CSCCCC(C)NC[C@H](O)c1ccc(O)c(O)c1 (stereo partly drawn) [Example 8, 1-(R)-(3,4-dihydroxyphenyl)-2-(1-methyl-4-methylthiobutylamino)ethanol]",,,,,,,,,,,,
